We go through eleven compounds from ChEMBL document CHEMBL1156544, “Bioactive brominated metabolites from the red sea sponge Suberea mollis” (2008).

The source made the active and inactive calls. The rule behind the calls is not given here.

Experiment [1] has as its system Staphylococcus aureus. The experiment can be described thus: Antibacterial activity against Staphylococcus aureus ATCC 6538P assessed as inhibition zone diameter after 24 hrs by agar diffusion method. The class given is functional.
Experiment [2] relates to Pseudomonas aeruginosa. The experiment in a line: Antibacterial activity against Pseudomonas aeruginosa ATCC 9027 assessed as inhibition zone diameter after 24 hrs by agar diffusion method. Type of experiment: functional. On the technique in general: Agar diffusion results depend on both activity and mobility in agar.
The test system of experiment [3] is Klebsiella pneumoniae. The experiment in a line: Antibacterial activity against Klebsiella pneumoniae ATCC 10032 assessed as inhibition zone diameter after 24 hrs by agar diffusion method. Type of experiment: functional.
Experiment [4] concerns Staphylococcus aureus. The experiment can be described thus: Antibacterial activity against Staphylococcus aureus ATCC 6538P assessed as inhibition zone diameter at 15 ug/disk after 24 hrs by agar diffusion method. Type of experiment: functional. The settings on record: read-out: IZ.
The subject of experiment [5] is Pseudomonas aeruginosa. The experiment can be described thus: Antibacterial activity against Pseudomonas aeruginosa ATCC 9027 assessed as inhibition zone diameter at 15 ug/disk after 24 hrs by agar diffusion method. Type of experiment: functional, organism-based.
In experiment [6] the test system is Klebsiella pneumoniae. The experiment can be described thus: Antibacterial activity against Klebsiella pneumoniae ATCC 10032 assessed as inhibition zone diameter at 15 ug/disk after 24 hrs by agar diffusion method. The class given is functional, organism-based.
Experiment [7] has as its system Staphylococcus aureus. The experiment can be described thus: Antibacterial activity against Staphylococcus aureus ATCC 6538P assessed as inhibition zone diameter at 5 ug/disk after 24 hrs by agar diffusion method. Type of experiment: functional, organism-based.
In experiment [8] the test system is Pseudomonas aeruginosa. The experiment can be described thus: microbe, parasite or virus in culture. To be noted: ATCC 9027, 24 h, read-out: IZ.
Description: Antibacterial activity against Pseudomonas aeruginosa ATCC 9027 assessed as inhibition zone diameter at 5 ug/disk after 24 hrs by agar diffusion method
Experiment [9] has as its system Klebsiella pneumoniae. The experiment can be described thus: microbe, parasite or virus in culture. The settings on record: ATCC 10032, 24 h, read-out: IZ.
Description: Antibacterial activity against Klebsiella pneumoniae ATCC 10032 assessed as inhibition zone diameter at 5 ug/disk after 24 hrs by agar diffusion method
The test system of experiment [10] is Radical scavenging activity. The experiment can be described thus: Antioxidant activity assessed as DPPH radical scavenging activity at 6 ug. Type of experiment: functional. For orientation: Loss of DPPH colour is used to gauge radical scavenging.
For experiment [11], the system named is Staphylococcus aureus. The experiment in a line: Antibacterial activity against Staphylococcus aureus ATCC 6538P assessed as inhibition zone diameter at 30 ug/disk after 24 hrs by agar diffusion method. Type of experiment: functional. The settings on record: read-out: IZ.
For experiment [12], the system named is Pseudomonas aeruginosa. The experiment in a line: Antibacterial activity against Pseudomonas aeruginosa ATCC 9027 assessed as inhibition zone diameter at 30 ug/disk after 24 hrs by agar diffusion method. The class given is functional. To be noted: ATCC 9027, 24 h, read-out: IZ.
The subject of experiment [13] is Klebsiella pneumoniae. The experiment can be described thus: Antibacterial activity against Klebsiella pneumoniae ATCC 10032 assessed as inhibition zone diameter at 30 ug/disk after 24 hrs by agar diffusion method. The class given is functional. The settings on record: ATCC 10032, 24 h, read-out: IZ.

Turning to `COC1=C(Br)[C@H](O)[C@@]2(C=C1Br)CC(C(=O)NCCCCCNC(=O)C1=NO[C@]3(C=C(Br)C(OC)=C(Br)[C@@H]3O)C1)=NO2` [HOMOAEROTHIONIN], the “inhibition zone (IZ)” value in experiment [1] was found to be 3 mm. Besides, the result in experiment [2] and in experiment [3] was inactive.
`CCOC(=O)NCCCCNC(=O)C1=NO[C@]2(C=C(Br)C(OC)=C(Br)[C@@H]2O)C1` [SUBEREAMOLLINE A]: the “inhibition zone (IZ)” value in [1] is listed as 3 mm. The result in experiment [2] and in [3] was inactive.
In the case of `COC1=C(Br)[C@H](O)[C@@]2(C=C1Br)CC(C(=O)NCCCOc1c(Br)cc(CCNC(=O)C3=NO[C@]4(C=C(Br)C(OC)=C(Br)[C@@H]4O)C3)cc1Br)=NO2`, the result in experiment [1], in experiment [2] and in experiment [3] was inactive.
Consider `CC[C@H]1OC(=O)[C@H](C)[C@@H](O[C@H]2C[C@@](C)(OC)[C@@H](O)[C@H](C)O2)[C@H](C)[C@@H](O[C@@H]2O[C@H](C)C[C@H](N(C)C)[C@H]2O)[C@](C)(O)C[C@@H](C)C(=O)[C@H](C)[C@@H](O)[C@]1(C)O` [ERYTHROMYCIN], for which the zone of inhibition at 15 µg/disc in experiment [4] was 8 mm. Further, the result in [5] and in experiment [6] was inactive.
In the case of `O=C(O)c1cn(C2CC2)c2cc(N3CCNCC3)c(F)cc2c1=O` [CIPROFLOXACIN], the result in experiment [7] was inactive. Further, the zone of inhibition at 5 µg/disc in experiment [8] was found to be 2 mm; in [9], 8 mm.
Take `COC(=O)Cc1cc(Br)c(O)c(Br)c1O` [SUBEREAPHENOL B]: in experiment [1], the “inhibition zone (IZ)” value is recorded as 5 mm. Further, the result in [2] and in experiment [3] was inactive. The result in [10] was Active.
On to `O=C(N[C@H](CO)[C@H](O)c1ccc([N+](=O)[O-])cc1)C(Cl)Cl` [CHLORAMPHENICOL], for which the zone of inhibition at 30 µg/disc was determined as 9 mm in experiment [11], 7 mm in experiment [12] and 10 mm in experiment [13].
For the compound `COC1=C(Br)[C@@H]2OC(=O)C[C@]2(O)C=C1Br`, in experiment [1], the “inhibition zone (IZ)” value was 5 mm. Also, the result in [2] and in [3] was inactive.
With `COC1=C(Br)[C@H](O)[C@@]2(C=C1Br)CC(C(=O)NCCCCNC(=O)C1=NO[C@]3(C=C(Br)C(OC)=C(Br)[C@@H]3O)C1)=NO2` [AEROTHIONIN], the “inhibition zone (IZ)” value amounted to 5 mm in experiment [1] and 3 mm in [3]. For the same compound, the result in [2] was inactive.
As to `CCOC(=O)Cc1cc(Br)c(O)c(Br)c1O`, the result in experiment [10] was Active.
As for `COC1=C(Br)[C@H](O)[C@](O)(CC#N)C=C1Br`, the “inhibition zone (IZ)” value in experiment [1] is reported as 9 mm; in [2], 11 mm; in experiment [3] it was 7 mm.
